{
  "source": "paper PMC10258794",
  "about": "“To Fold or Not to Fold: Diastereomeric Optimization of an α-Helical Antimicrobial Peptide” (Journal of Medicinal Chemistry, 2023)",
  "key": {"Burkolderia cenocepacia": {"tested_on": "Burkolderia cenocepacia", "test": "microbe, parasite or virus in culture"}, "Enterobacter cloacae": {"tested_on": "Enterobacter cloacae", "test": "microbe, parasite or virus in culture", "settings": "pH 7.4", "in_short": "(§1)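 A colony was grown overnight in LB at 37 °C, diluted in MH medium pH 7.4 to OD600 0.022 and added to 1/2 serial dilutions of compound (final about 5 × 10^5 CFU).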"}, "P. aeruginosa PA14": {"tested_on": "P. aeruginosa PA14", "test": "microbe, parasite or virus in culture", "in_short": "as §1"}, "P. aeruginosa ZEM-1A": {"tested_on": "P. aeruginosa ZEM-1A", "test": "microbe, parasite or virus in culture", "settings": "pH 7.4", "in_short": "as §1"}, "PA14 2P4 (pmrB)": {"tested_on": "PA14 2P4 (pmrB)", "test": "microbe, parasite or virus in culture", "settings": "supplementary CSV", "in_short": "as §1"}, "PA14 4.13 (phoQ)": {"tested_on": "PA14 4.13 (phoQ)", "test": "microbe, parasite or virus in culture", "settings": "supplementary CSV", "in_short": "as §1"}, "PA14 4.18 (pmrB)": {"tested_on": "PA14 4.18 (pmrB)", "test": "microbe, parasite or virus in culture", "settings": "supplementary CSV", "in_short": "as §1"}, "P. aeruginosa ZEM9A": {"tested_on": "P. aeruginosa ZEM9A", "test": "microbe, parasite or virus in culture", "format": "cell-based, Pseudomonas aeruginosa", "settings": "pH 7.4", "in_short": "as §1"}, "K. pneumoniae Oxa-48": {"tested_on": "K. pneumoniae Oxa-48", "test": "MIC broth microdilution, K. pneumoniae Oxa-48", "format": "cell-based, Klebsiella pneumoniae", "settings": "MDR strain; MH broth pH 7.4, 16–20 h, 37 °C", "in_short": "as §1"}, "[1]": {"tested_on": "Stenotrophomonas maltophilia", "test": "microbe, parasite or virus in culture", "format": "cell-based", "settings": "pH 7.4", "in_short": "as §1"}, "Staphylococcus epidermis": {"tested_on": "Staphylococcus epidermis", "test": "MIC broth microdilution, Staphylococcus epidermis", "format": "cell-based", "in_short": "as §1"}, "HEK293 cells": {"tested_on": "HEK293 cells", "test": "Alamar blue cytotoxicity, HEK293", "format": "cell-based, human", "settings": "24 h, mean ± SD, n = 3, read-out: Toxicity on HEK293 cells", "in_short": "(§2)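 Viability read by AlamarBlue fluorescence (560/590 nm) after 3–5 h with 10% reagent, relative to untreated controls. Beforehand, cells got rising compound doses for 24 h at 37 °C; seeding was 8000/well for A549 in RPMI-1640 and 4000/well for HEK293 in DMEM.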"}, "A549 cells": {"tested_on": "A549 cells", "test": "Alamar blue cytotoxicity, A549", "format": "cell-based, human", "settings": "24 h, mean ± SD, n = 3, read-out: Toxicity on A549 lung cancern cells", "in_short": "as §2"}, "[2]": {"settings": "24 h, […] human serum in TRIS buffer pH 7.4, 37 °C", "experimental": "Human serum was diluted in 0.1 M filtered TRIS buffer (pH 7.4) (25%, 1:3, v/v). Selected peptides were diluted in 0.1 M filtered TRIS buffer (pH 7.4) to a concentration of 400 μM, and 0.1 mg/mL 4- hydroxybenzoic acid was added as an internal standard. Aliquots of peptide solution (50 μL) were added to aliquots of serum (50 μL) in sterile Eppendorf tubes, to reach a peptide concentration of 200 μM during the assay. Samples were incubated at 37 °C under gentle stirring (350 rpm). Different samples (triplicates) were quenched at different time points (0/1/6/12/24 h) by precipitating serum proteins through the addition of ZnSO4·7 H2O/ACN (1:1) (0.1 M, 100 μL) and cooling in ice bath for 10 min. Protein precipitates were pelleted under centrifugation, and supernatants were then sampled and analyzed by LC–MS. Experiment controls included two references, one known to be degraded and one known to be undegraded. Peaks corresponding to the internal standard and the undegraded peptides were integrated, with the ratio peptide/standard at t = 0 h as 100%."}, "P. aeruginosa PAO1 [3]": {"tested_on": "P. aeruginosa PAO1", "test": "Time-killing kinetic assay", "format": "cell-based, Pseudomonas aeruginosa", "settings": "P. aeruginosa PAO1, 4 × MIC, pH 7.4", "experimental": "A single colony of P. aeruginosa PAO1 was picked and grown overnight with shaking (180 rpm) in LB (Sigma-Aldrich, Buchs, Switzerland) medium 5 mL overnight at 37 °C. The overnight bacterial culture was diluted to OD600 0.002 (2 × 10^6 CFU/mL) in fresh MH medium. Stock solutions of AMPs in sterilized milliQ water were prepared in 1 mg/mL and were diluted to two times more than required concentration in fresh MH (Sigma-Aldrich, Buchs, Switzerland) medium at pH 7.4. 100 μL of prepared bacteria solution in MH and 100 μL of samples in MH were mixed in a 96-well microtiter plate (TPP, untreated, Corning Incorporated, Kennebunk, USA). Untreated bacteria at 1 × 10^6 CFU/mL were used as a growth control. 96-well microtiter plates were incubated in 37 °C with shaking (180 rpm). Surviving bacteria were quantified at 0, 0.5, 1, 2, 3, 4, 5, and 6 h by plating 10-fold dilutions of the sample in sterilized normal saline on LB agar plates. LB agar plates were incubated at 37 °C for 10 h, and the number of individual colonies was counted at each timepoint. The assay was performed in triplicate in the biosafety level 2 lab."}, "A. baumannii ATCC19606": {"tested_on": "A. baumannii ATCC19606", "settings": "MH broth pH 7.4, 16–20 h, 37 °C", "in_short": "as §1"}, "E. coli W3110": {"tested_on": "E. coli W3110", "settings": "MH broth pH 7.4, 16–20 h, 37 °C", "in_short": "as §1"}, "K. pneumoniae NCTC418": {"tested_on": "K. pneumoniae NCTC418", "in_short": "as §1"}, "P. aeruginosa PAO1 [4]": {"tested_on": "P. aeruginosa PAO1", "in_short": "as §1"}, "[5]": {"tested_on": "Pseudomonas aeruginosa, Klebsiella pneumoniae, Acinetobacter baumannii, Escherichia coli, and methicillin-resistant Staphylococcus aureus", "settings": "summary of Table 1", "in_short": "as §1"}, "S. aureus COL MRSA": {"tested_on": "S. aureus COL MRSA", "in_short": "as §1"}, "S. aureus Newman [6]": {"tested_on": "S. aureus Newman"}, "S. aureus Newman [7]": {"tested_on": "S. aureus Newman", "test": "microbe, parasite or virus in culture", "settings": "Staphylococcus aureus, pH 7.4, read-out: MIC S. aureus Newman"}, "[8]": {"settings": "MH broth pH 7.4, 16–20 h, 37 °C"}, "[9]": {"settings": "supplementary CSV, ranges of Table 1 given as one number"}},
  "note": "Read-outs that look alike come from different tables or passages of the source.",
  "data": [
    {"smiles": "CC(C)C[C@H](NC(=O)[C@H](CCCCN)NC(=O)[C@H](N)CCCCN)C(=O)N[C@@H](CC(C)C)C(=O)N[C@@H](CCCCN)C(=O)N[C@@H](CC(C)C)C(=O)N[C@@H](CC(C)C)C(=O)N[C@@H](CCCCN)C(=O)N[C@@H](CC(C)C)C(=O)N[C@@H](CC(C)C)C(=O)N[C@H](CC(C)C)C(N)=O", "note": "[HP5]", "values": [
      {"measurement": "MIC Burkolderia cenocepacia", "setting": "Burkolderia cenocepacia; MDR strain, MH broth pH 7.4, 16–20 h, 37 °C", "result": ">64", "unit": "µg/mL"},
      {"measurement": "MIC B. cenocepacia", "setting": "Burkolderia cenocepacia; supplementary CSV", "result": "> 64", "unit": "µg/mL"},
      {"measurement": "MIC Enterobacter cloacae", "setting": "Enterobacter cloacae", "result": 2, "unit": "µg/mL"},
      {"measurement": "MIC PA14", "setting": "P. aeruginosa PA14; [8]", "result": 2, "unit": "µg/mL"},
      {"measurement": "MIC P. aeruginosa PA14", "setting": "P. aeruginosa PA14; supplementary CSV", "result": 2, "unit": "µg/mL"},
      {"measurement": "MIC ZEM-1A", "setting": "P. aeruginosa ZEM-1A", "result": 2, "unit": "µg/mL"},
      {"measurement": "MIC P. aeruginosaPA14 2P4", "setting": "PA14 2P4 (pmrB)", "result": 32, "unit": "µg/mL"},
      {"measurement": "MIC P. aeruginosa PA14 4.13", "setting": "PA14 4.13 (phoQ)", "result": 4, "unit": "µg/mL"},
      {"measurement": "MIC P. aeruginosa PA14 4.18", "setting": "PA14 4.18 (pmrB)", "result": 16, "unit": "µg/mL"},
      {"measurement": "MIC ZEM9A", "setting": "P. aeruginosa ZEM9A", "result": 4, "unit": "µg/mL"},
      {"measurement": "MIC K. pneumoniae Oxa-48", "setting": "K. pneumoniae Oxa-48", "result": 2, "unit": "µg/mL"},
      {"measurement": "MIC Stenotrophomonas maltophilia", "setting": "[1]", "result": 2, "unit": "µg/mL"},
      {"measurement": "MIC Staphylococcus epidermis", "setting": "Staphylococcus epidermis; pH 7.4", "result": 2, "unit": "µg/mL"},
      {"measurement": "IC50", "setting": "HEK293 cells", "result": "93.2 ± 0.1", "unit": "µM"},
      {"measurement": "IC50", "setting": "A549 cells", "result": "18.9 ± 3.6", "unit": "µM"},
      {"measurement": "serum stability", "setting": "[2]", "result": "entirely stabilize"},
      {"measurement": "time to complete killing of bacteria", "setting": "P. aeruginosa PAO1 [3]", "result": "≤ 1", "unit": "h"},
      {"measurement": "MIC A. baumannii ATCC19606", "setting": "A. baumannii ATCC19606", "result": 0.5, "unit": "µg/mL"},
      {"measurement": "MIC E. coli W3110", "setting": "E. coli W3110", "result": 0.5, "unit": "µg/mL"},
      {"measurement": "MIC K. pneumoniae NCTC418", "setting": "K. pneumoniae NCTC418; [8]", "result": 2, "unit": "µg/mL"},
      {"measurement": "MIC K. pneumoniae NCTC418", "setting": "K. pneumoniae NCTC418; [9]", "result": 2, "unit": "µg/mL"},
      {"measurement": "MIC P. aeruginosa PAO1", "setting": "P. aeruginosa PAO1 [4]; [8]", "result": 2, "unit": "µg/mL"},
      {"measurement": "MIC P. aeruginosa PAO1", "setting": "P. aeruginosa PAO1 [4]; [9]", "result": 2, "unit": "µg/mL"},
      {"measurement": "MIC, span over the five bacterial strains", "setting": "[5]", "result": "0.5 to 4", "unit": "µg/mL"},
      {"measurement": "MIC S. aureus COL MRSA", "setting": "S. aureus COL MRSA; [8]", "result": 2, "unit": "µg/mL"},
      {"measurement": "MIC S. aureus COL", "setting": "S. aureus COL MRSA; [9]", "result": 2, "unit": "µg/mL"},
      {"measurement": "MIC S. aureus Newman", "setting": "S. aureus Newman [6]; [8]", "result": 2, "unit": "µg/mL"},
      {"measurement": "MIC S. aureus Newmann", "setting": "S. aureus Newman [6]; supplementary CSV", "result": 2, "unit": "µg/mL"}
    ]},
    {"smiles": "CN[C@H](CC(C)C)C(=O)N[C@H]1C(=O)N[C@@H](CC(N)=O)C(=O)N[C@H]2C(=O)N[C@H]3C(=O)N[C@H](C(=O)N[C@H](C(=O)O)c4cc(O)cc(O)c4-c4cc3ccc4O)[C@H](O)c3ccc(c(Cl)c3)Oc3cc2cc(c3O[C@@H]2O[C@H](CO)[C@@H](O)[C@H](O)[C@H]2O[C@H]2C[C@](C)(N)[C@H](O)[C@H](C)O2)Oc2ccc(cc2Cl)[C@H]1O", "note": "[Vancomycin, vancomycin, reference compound]", "values": [
      {"measurement": "MIC", "setting": "Staphylococcus epidermis; Staphylococcus, pH 7.4, read-out: MIC Staphylococcus epidermis", "result": 0.5, "unit": "µg/mL"},
      {"measurement": "MIC", "setting": "S. aureus Newman [7]", "result": 0.5, "unit": "µg/mL"}
    ]}
  ]
}
